One assay concerns lignée MCF-7 ATCC HTB. Nature of the assay: MTT cytotoxicity test (cell viability). Particulars: MCF7 ATCC cells; 5 days incubation with compound; MTT readout at 550 nm; calculated from points of Figures 1A, 1B and 2 between 5.10^-7 and 10^-5 moles/l; read-out: IC50 (µmole) MCF7 ATCC. Format: cell-based, humaines. From the text:
(§1) L'évaluation de la cytotoxicité des isomères "trans" et "cis" du 1-[4-(2-diméthylaminoéthoxy) phényl]-1-(4-hydroxyphényl)-2-ferrocényl-1-butène a fait l'objet de tests sur des lignées de cellules humaines dérivées d'une effusion pleurale d'un adénocarcinome mammaire (lignée MCF-7 ATCC HTB) ainsi que de l'un de ses variants (lignée MCF-7P).
(§2) Ces cellules ont été préalablement cultivées dans du milieu Dulbecco MEM additionné de 10% de sérum de veau foetal et en atmosphère humide (90% d'humidité relative) comprenant 5% de CO2. En phase exponentielle de croissance, ces cellules ont été trypsinées et repiquées dans des plaques de 24 puits de 1 ml à raison de 2.10^5 cellules par puits.
(§3) Après 3 jours d'incubation, les composés à tester ont été ajoutés aux doses appropriées et les plaques ont été mises à incuber pendant 5 jours.
(§4) A l'issue de cette incubation, la viabilité cellulaire des cultures a été déterminée à l'aide du test dit "MTT" consistant à ajouter dans chaque puits 20 µl d'une solution contenant 5 mg de bromure de (diméthyl-4,5-thiazol-2-yl)diphényl-2,5-tétrazolium (MTT) dans 1 ml de tampon PBS, et à laisser incuber les plaques pendant 1 heure à 37°C dans des conditions atmosphériques identiques à celles définies ci-dessus. Le MTT est métabolisé dans les cellules vivantes en un composé bleu insoluble (formazan).
(§5) A l'issue de cette incubation, les puits sont lavés à l'aide de PBS pour éliminer le MTT et les cristaux résiduels de formazan sont repris dans 1 ml de DMSO. La concentration en formazan pour chaque puits est lue par photométrie à une longueur d'onde de 550 nm et comparée à un témoin correspondant à du milieu incubé en présence de MTT mais en l'absence de cellules.

The subject of the next assay is lignée MCF-7P. Nature of the assay: MTT cytotoxicity test (cell viability). It is filed as cell-based, humaines. Particulars: MCF7-P variant cells; 5 days incubation with compound; MTT readout at 550 nm; calculated from points of Figures 1A, 1B and 2 between 5.10^-7 and 10^-5 moles/l; read-out: IC50 (µmole) MCF7-P.
From the text: as §1, §2, §3, §4, §5

In patent EP0804445B1, “METALLOCENIC […] DERIVATIVES, METHODS FOR THEIR PREPARATION AND PHARMACEUTICAL COMPOSITIONS CONTAINING SAME” (Modelisation et Mise au Point de Molecules Medicanales - …, priority 1994, dated 1996) one finds IC50 data, which are given here for 2 compounds.

One may read the IC50 as the concentration needed to halve the response being measured.

Take `CCC(=C(c1ccc(O)cc1)c1ccc(OCCN(C)C)cc1)[c-]1cccc1.[Fe+2].c1cc[cH-]c1` [Dérivé "trans", 1-[4-(2-diméthylaminoéthoxy)phényl]-1-(4-hydroxyphényl)-2-ferrocényl-1-butène]: the IC50 in the assay on lignée MCF-7 ATCC HTB was 4.9 µM; in the assay on lignée MCF-7P it was 2 µM.

As for `CCC(=C(c1ccc(O)cc1)c1ccc(OCCN(C)C)cc1)[c-]1cccc1.[Fe+2].c1cc[cH-]c1` [Dérivé "cis", 1-[4-(2-diméthylaminoéthoxy)phényl]-1-(4-hydroxyphényl)-2-ferrocényl-1-butène], the results for the IC50 in the assay with lignée MCF-7 ATCC HTB and in the assay with lignée MCF-7P were 3.4 µM and 5.6 µM, respectively.
